US12383556B2, “Methods of treating Sjögren's syndrome using a Bruton's tyrosine kinase inhibitor” (NOVARTIS AG, priority 2019, dated 2025)
Where two headings read alike, the source gives them in different places.

Tests used:
[1] = test system: mast cell FcγRIII-mediated inflammation; experiment: Reverse passive Arthus (RPA) model, skin swelling; format: in vivo
Experimental: As the levels of BTK-expressing cells in skin were too low to allow occupancy measurement, the duration of the PD effect in skin after single dose was assessed in the reverse passive Arthus (RPA) model of mast cell FcγRIII-mediated inflammation. In this model, the inhibition of skin swelling was maximal when compound (I) was dosed 2 hours prior to eliciting the Arthus reaction. The effect diminished gradually and reached baseline when the Arthus reaction was triggered 45 hours or later after compound (I) dosing.

[2] = First-in-human Part 1 single ascending dose blood PK; format: in vivo
Experimental: A first-in-human study was conducted to assess the safety and tolerability, pharmacokinetics (PK) and pharmacodynamics (PD) of single and multiple doses of compound (I) both as once daily (qd) and twice daily (bid) oral administration in healthy volunteers and those with atopic diathesis, to support further clinical development of compound (I) in autoimmune diseases. This study also explored the effect of food intake.
(§1) First-in-human study in up to approximately 168 healthy volunteers (HVs), of which 64 (in Parts 2 & 4) had asymptomatic atopic diathesis. • Part 1 was a double-blind (subject and investigator blind, sponsor unblinded), placebo-controlled single ascending dose (SAD) escalation study of 10 cohorts (N=80) • Part 2 was a double-blind (subject and investigator blind, sponsor unblinded), placebo-controlled multiple ascending dose (MAD) (13 doses over 12 days) escalation study employing once daily dosing in 6 cohorts in healthy volunteers with asymptomatic atopic diathesis (N=48) • Part 3 was a single dose open-label crossover food effect study in 12 HVs • Part 4 was a double-blind (subject and investigator blind, sponsor unblinded), placebo-controlled multiple dose (25 doses over 12 days) study employing twice daily dosing in 2 cohorts of healthy volunteers with asymptomatic atopic diathesis (N=16)
In Part 1, subjects were admitted to the study site on Day −2 or −1 for baseline safety assessments and to confirm eligibility. Eligible subjects received a single dose of compound (I) or placebo under fasting conditions on Day 1. They were domiciled from Day −1 to the morning of Day 5 (96 hours post last drug administration).
Subjects were assigned to one of the following 10 cohorts. In each cohort, 8 subjects were randomized to either compound (I) or matching placebo in an overall 6:2 ratio. The first sub-cohort was randomized in a 1:1 ratio as one subject on compound (I) and one on matching placebo. The remaining 6 subjects per cohort, dosed after a 48-hour observation period of the initially dosed 2 subjects, were randomized in a 5:1 ratio. • Cohort 1: single oral dose of 0.5 mg compound (I) or matching placebo • Cohort 2: single oral dose of 1.5 mg compound (I) or matching placebo • Cohort 3: single oral dose of 5 mg compound (I) or matching placebo • Cohort 4: single oral dose of 15 mg compound (I) or matching placebo • Cohort 5: single oral dose of 30 mg compound (I) or matching placebo • Cohort 6: single oral dose of 60 mg compound (I) or matching placebo • Cohort 7: single oral dose of 100 mg compound (I) or matching placebo • Cohort 8: single oral dose of 200 mg compound (I) or matching placebo • Cohort 9: single oral dose of 400 mg compound (I) or matching placebo • Cohort 10: single oral dose of 600 mg compound (I) or matching placebo
Pharmacokinetic samples were obtained in blood and evaluated in all subjects at all dose levels. The samples from placebo subjects were not analyzed. The samples for PK assessments from subjects were collected at time points defined in the study. Compound (I) concentrations were determined in blood by a validated LC-MS/MS method.

[3] = First-in-human Part 4 multiple dose b.i.d. blood PK; format: in vivo
Text: as §1
In Parts 2 and 4, subjects were admitted on Day −2 or −1 for baseline safety assessments and to confirm eligibility. Eligible subjects received the first dose of compound (I) under fasting conditions on Day 1, and continued to take study medication under fasting conditions up to and including Day 12. Subjects were domiciled from Day −2 or −1 until the morning of Day 16, which equals 96 hours after the last dose of compound (I) was received. In Parts 2 and 4, the study medication was given once daily and twice daily respectively (details are found in the schedule of assessments).
Subjects were assigned to one of the following cohorts. In each cohort, 8 subjects were randomized to either Compound (I) or matching placebo in a 6:2 ratio. • Cohort 1: multiple oral doses of 100 mg Compound (I) or matching placebo in a bid regimen • Cohort 2: multiple oral doses of 200 mg Compound (I) or matching placebo in a bid regimen
Pharmacokinetic samples were obtained in blood and evaluated in all subjects at all dose levels. The samples from placebo subjects were not analyzed. […] Compound (I) concentrations were determined in blood by a validated LC-MS/MS method.

[4] = test system: FcεR1-mediated basophil activation; experiment: Ex vivo basophil activation (CD63, CD203c), whole blood stimulated with anti-IgE, flow cytometry; format: in vivo, human
Experimental: In addition, ex vivo inhibition of basophil activation (monitored by surface expression of CD63 and CD203c) was used as distal mechanistic biomarker to test downstream PD effects of compound (I). To determine the PD effect of compound (I) on basophil activation, whole blood was stimulated ex vivo with anti-IgE. Degranulation was evaluated by percentage of CD63+ and CD203+ basophils by flow cytometry.

[5] = test system: defined allergen response (wheal size); experiment: Skin prick test (SPT) in healthy atopic subjects; format: in vivo, human; conditions: for dose at which reduction of wheal size in SPT started to plateau: multiple ascending dose, q.d.
Experimental: The ability of compound (I) to inhibit a defined allergen response has been evaluated by means of the skin prick test (SPT) in healthy atopic subjects in the MAD study part of the first in human study. SPT was performed prior to dosing (at screening, baseline and pre-dose on Day 1) and at different time points after the first dose (Day 1) and after 11 days of once daily dosing (Day 12).

half-life ([2]; human, blood, oral, single ascending doses, dose-independent, read-out: distribution phase T1/2 (converted)): ~1 h | MRT ([2]; human, blood, oral, single ascending doses, read-out: mean residence time (MRT) in the circulation): 1 to 5 h | half-life ([2]; human, blood, oral, single dose 100 mg, read-out: terminal half-life (converted)): 4 h | half-life ([2]; human, blood, oral, single dose 600 mg, read-out: terminal half-life (converted)): 18 h | oral blood clearance CL/F, estimate across all cohorts ([2]; single dose): about 383 L/h | increase of AUCtau from 100 mg to 200 mg b.i.d. ([3]; day 12): dose proportional increase | increase of Cmax from 100 mg to 200 mg b.i.d. ([3]; day 12): 1.33 fold | Tmax ([3]; human, blood, oral, b.i.d. regimen 100 mg and 200 mg): ~1 h
SMILES: C=CC(=O)N(C)CCOc1c(N)ncnc1-c1cc(F)cc(NC(=O)c2ccc(C3CC3)cc2F)c1C [Compound of Formula (I), N-(3-(6-Amino-5-(2-(N-methylacrylamido)ethoxy)pyrimidin-4-yl)-5-fluoro-2-methylphenyl)-4-cyclopropyl-2-fluorobenzamide]
time after dosing of Arthus trigger at which effect reached baseline ([1]; single dose): ≥ 45 h | inhibition of skin swelling ([1]; single dose 2 hours prior to eliciting the Arthus reaction): maximal | reduction of CD63 up-regulation ([4]; 10 mg q.d., as restated): > 80% | inhibition of CD63 upregulation ([4]; 10 mg q.d., day 12 (steady state), 8 h after administration): > 90% | maximum trough inhibition of CD203c activation ([4]; Day 12, multiple doses): only achieved with b.i.d. administration of 100 mg and 200 mg | trough level inhibition of CD63 ([4]; doses ≥50 mg q.d., day 12): > 90% | inhibition of ex vivo basophil activation measured by CD63 ([4]; single dose 60 mg, 24 h post dose): > 89% | maximum inhibition of CD203c ([4]; single dose 200 mg, 24 h post dose): ~50% | inhibition of ex vivo basophil activation measured by CD63 ([4]; single doses higher than 60 mg, 24 h post dose): ~100% | inhibition of wheal size in SPT ([5]; 10 mg q.d.): minimal inhibition | dose at which reduction of wheal size in SPT started to plateau ([5]; listed as compound (I)): around 100 mg | dose at which reduction of wheal size in SPT started to plateau ([5]; listed as compound of Formula (I)): 100 mg
